Test results: ChEMBL document CHEMBL5512623, “Discovery of the novel and potent histamine H1 receptor antagonists for treatment of allergic diseases” (Eur J Med Chem, 2024); call rule not given here

Legend:
[1] = molecular target: Voltage-gated inwardly rectifying potassium channel KCNH2 (Homo sapiens, UniProt Q12809); assay: Inhibition of hERG in HEK293 cells measured after 5 mins by patch-clamp assay
[2] = molecular target: Muscarinic acetylcholine receptor M3 (Homo sapiens, UniProt P20309); assay: Antagonist activity at human muscarinic M3 receptor expressed in PathHunter U2OS CHRM3 beta-arrestin cells preincubated for 30 mins followed by agonist addition at 6 times EC80 and measured after 90 to 180 mins by PathHunter assay; format: functional, cell-based
[3] = Ratio of Cmax in male Sprague-Dawley rat brain to plasma at 10 mg/kg, IG administered as single dose; format: ADME, organism-based; conditions: brain and plasma, po, read-out: BPR
[4] = Subacute toxicity in Sprague-Dawley rat assessed as increase in aspartate aminotransferase level in serum at 140 mg/kg, IG administered once a day for 14 days; format: organism-based; conditions: in vivo, po, 336 h, time 14 day
[5] = Subacute toxicity in Sprague-Dawley rat assessed as effect on white blood cell count at 140 mg/kg, IG administered once a day for 14 days; format: organism-based; conditions: in vivo, po, 336 h, time 14 day
[6] = Acute toxicity in Sprague-Dawley rat assessed as weight loss at 700 mg/kg, IG measured for 7 days; format: organism-based; conditions: in vivo, po, 168 h, time 7 day
[7] = Metabolic stability in Beagle dog liver microsomes at 1 uM measured upto 120 mins by LC-MS/MS analysis; format: ADME, Canis lupus familiaris, Microsome; conditions: 2 h
[8] = Subacute toxicity in Sprague-Dawley rat assessed as effect on ECG at 140 mg/kg, IG administered once a day for 14 days; format: organism-based; conditions: in vivo, po, 336 h, time 14 day
[9] = Subacute toxicity in Sprague-Dawley rat assessed as effect on neutrophil count at 140 mg/kg, IG administered once a day for 14 days; format: organism-based; conditions: in vivo, po, 336 h, time 14 day
[10] = MRT (0 to infinity) in male Sprague-Dawley rat at 4 mg/kg, iv administered via tail vein and measured upto 24 hrs by LC-MS/MS analysis; format: ADME, organism-based; conditions: in vivo
[11] = Plasma protein binding in rat assessed as binding rate at 1200 ng/ml prewarmed for 30 mins by LC-MS/MS analysis; format: ADME, cell-free; conditions: read-out: PPB (converted)
[12] = Cmax in female Sprague-Dawley rat brain at 10 mg/kg, IG administered as single dose; format: ADME, organism-based; conditions: po
[13] = Subacute toxicity in Sprague-Dawley rat assessed as wheezing at 140 mg/kg, IG administered once a day for 14 days; format: organism-based; conditions: in vivo, po, 336 h, time 14 day
[14] = Cmax in male Sprague-Dawley rat at 25 mg/kg, po measured upto 24 hrs by LC-MS/MS analysis; format: ADME, organism-based; conditions: in vivo
[15] = Subacute toxicity in Sprague-Dawley rat assessed as lethargy at 140 mg/kg, IG administered once a day for 14 days; format: organism-based; conditions: in vivo, po, 336 h, time 14 day
[16] = Subacute toxicity in Sprague-Dawley rat assessed as organ abnormalities at 50 mg/kg, IG administered once a day for 14 days; format: organism-based; conditions: in vivo, po, 336 h, time 14 day
[17] = Half life in male Sprague-Dawley rat at 25 mg/kg, po measured upto 24 hrs by LC-MS/MS analysis; format: ADME, organism-based; conditions: in vivo
[18] = Apparent permeability across basolateral to apical side in human Caco-2 cells at 5 uM measured at 60 mins; format: ADME, cell-based
[19] = Plasma protein binding in rat assessed as binding rate at 500 ng/ml prewarmed for 30 mins by LC-MS/MS analysis; format: ADME, cell-free; conditions: read-out: PPB (converted)
[20] = Cmax in female Sprague-Dawley rat plasma at 10 mg/kg, IG administered as single dose; format: ADME, organism-based; conditions: po
[21] = MRT (0 to infinity) in male Sprague-Dawley rat at 25 mg/kg, po measured upto 24 hrs by LC-MS/MS analysis; format: ADME, organism-based; conditions: in vivo
[22] = Cmax in male Sprague-Dawley rat brain at 10 mg/kg, IG administered as single dose; format: ADME, organism-based; conditions: po
[23] = Plasma protein binding in rat assessed as binding rate at 1000 ng/ml prewarmed for 30 mins by LC-MS/MS analysis; format: ADME, cell-free; conditions: read-out: PPB (converted)
[24] = Ratio of Cmax in female Sprague-Dawley rat brain to plasma at 10 mg/kg, IG administered as single dose; format: ADME, organism-based; conditions: brain and plasma, po, read-out: BPR
[25] = Apparent permeability across apical to basolateral side in human Caco-2 cells at 5 uM measured at 60 mins; format: ADME, cell-based
[26] = Clearance in male Sprague-Dawley rat at 4 mg/kg, iv administered via tail vein and measured upto 24 hrs by LC-MS/MS analysis; format: ADME, organism-based; conditions: in vivo
[27] = Clearance in male Sprague-Dawley rat at 25 mg/kg, po measured upto 24 hrs by LC-MS/MS analysis; format: ADME, organism-based; conditions: in vivo
[28] = AUC (0 to t) in male Sprague-Dawley rat at 25 mg/kg, po measured upto 24 hrs by LC-MS/MS analysis; format: ADME, organism-based; conditions: in vivo
[29] = AUC (0 to t) in male Sprague-Dawley rat at 4 mg/kg, iv administered via tail vein and measured upto 24 hrs by LC-MS/MS analysis; format: ADME, organism-based; conditions: in vivo
[30] = Plasma protein binding in human assessed as binding rate at 1200 ng/ml prewarmed for 30 mins by LC-MS/MS analysis; format: ADME, cell-free; conditions: read-out: PPB (converted)
[31] = Oral bioavailability in male Sprague-Dawley rat at 25 mg/kg measured upto 24 hrs by LC-MS/MS analysis; format: ADME, organism-based; conditions: in vivo
[32] = Plasma protein binding in human assessed as binding rate at 250 ng/ml prewarmed for 30 mins by LC-MS/MS analysis; format: ADME, cell-free; conditions: read-out: PPB (converted)
[33] = AUC (0 to infinity) in male Sprague-Dawley rat at 4 mg/kg, iv administered via tail vein and measured upto 24 hrs by LC-MS/MS analysis; format: ADME, organism-based; conditions: in vivo
[34] = Acute toxicity in Sprague-Dawley rat assessed as reduction in animal activity at 700 mg/kg, IG measured for 7 days; format: organism-based; conditions: in vivo, po, 168 h, time 7 day
[35] = Subacute toxicity in Sprague-Dawley rat assessed as ptosis at 140 mg/kg, IG administered once a day for 14 days; format: organism-based; conditions: in vivo, po, 336 h, time 14 day
[36] = Plasma protein binding in human assessed as binding rate at 1000 ng/ml prewarmed for 30 mins by LC-MS/MS analysis; format: ADME, cell-free; conditions: read-out: PPB (converted)
[37] = Acute toxicity in IG dosed Sprague-Dawley rat assessed as minimum lethal dose measured for 7 days; format: organism-based; conditions: in vivo, po, 168 h, time 7 day
[38] = Volume of distribution in male Sprague-Dawley rat at 25 mg/kg, po measured upto 24 hrs by LC-MS/MS analysis; format: ADME, organism-based; conditions: in vivo
[39] = Subacute toxicity in Sprague-Dawley rat assessed as effect on lymphocyte count at 140 mg/kg, IG administered once a day for 14 days; format: organism-based; conditions: in vivo, po, 336 h, time 14 day
[40] = Plasma protein binding in rat assessed as binding rate at 250 ng/ml prewarmed for 30 mins by LC-MS/MS analysis; format: ADME, cell-free; conditions: read-out: PPB (converted)
[41] = Subacute toxicity in Sprague-Dawley rat assessed as abnormal symptoms at 50 mg/kg, IG administered once a day for 14 days; format: organism-based; conditions: in vivo, po, 336 h, time 14 day
[42] = Plasma protein binding in human assessed as binding rate at 500 ng/ml prewarmed for 30 mins by LC-MS/MS analysis; format: ADME, cell-free; conditions: read-out: PPB (converted)
[43] = Subacute toxicity in Sprague-Dawley rat assessed as animal death at 50 to 140 mg/kg, IG administered once a day for 14 days; format: organism-based; conditions: in vivo, po, 336 h, dose 50-140 mg/kg, time 14 day
[44] = Tmax in male Sprague-Dawley rat at 25 mg/kg, po measured upto 24 hrs by LC-MS/MS analysis; format: ADME, organism-based; conditions: in vivo
[45] = molecular target: T1, Cytochrome P450 1A2 (Mus musculus, UniProt P00186); assay: Inhibition of mouse CYP1A2 at 0.01 to 50 uM measured after 30 mins by LC-MS/MS analysis; format: ADME; conditions: 0.5 h, dose 0.01-50 µM
T1 sequence (P00186 whole entry): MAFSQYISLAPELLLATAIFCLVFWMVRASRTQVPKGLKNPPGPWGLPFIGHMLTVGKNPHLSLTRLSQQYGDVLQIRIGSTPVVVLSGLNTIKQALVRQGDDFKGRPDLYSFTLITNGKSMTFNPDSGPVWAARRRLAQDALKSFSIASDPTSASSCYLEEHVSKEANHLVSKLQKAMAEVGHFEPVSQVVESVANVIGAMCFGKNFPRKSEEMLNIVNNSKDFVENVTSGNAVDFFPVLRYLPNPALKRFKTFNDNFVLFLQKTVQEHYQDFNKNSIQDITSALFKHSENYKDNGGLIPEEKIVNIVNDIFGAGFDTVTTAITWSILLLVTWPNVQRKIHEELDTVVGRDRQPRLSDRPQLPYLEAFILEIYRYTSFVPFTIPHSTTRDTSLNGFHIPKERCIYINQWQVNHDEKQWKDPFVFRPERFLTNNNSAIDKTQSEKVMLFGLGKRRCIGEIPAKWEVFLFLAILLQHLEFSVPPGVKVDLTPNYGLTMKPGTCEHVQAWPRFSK

[46] = Cmax in male Sprague-Dawley rat plasma at 10 mg/kg, IG administered as single dose; format: ADME, organism-based; conditions: po
[47] = Metabolic stability in human liver microsomes at 1 uM measured upto 120 mins by LC-MS/MS analysis; format: ADME, Microsome; conditions: 2 h
[48] = Half life in male Sprague-Dawley rat at 4 mg/kg, iv administered via tail vein and measured upto 24 hrs by LC-MS/MS analysis; format: ADME, organism-based; conditions: in vivo
[49] = AUC (0 to infinity) in male Sprague-Dawley rat at 25 mg/kg, po measured upto 24 hrs by LC-MS/MS analysis; format: ADME, organism-based; conditions: in vivo
[50] = Subacute toxicity in Sprague-Dawley rat assessed as increase in spleen to brain ratio at 140 mg/kg, IG administered once a day for 14 days; format: organism-based; conditions: in vivo, po, 336 h, time 14 day
[51] = Volume of distribution in male Sprague-Dawley rat at 4 mg/kg, iv administered via tail vein and measured upto 24 hrs by LC-MS/MS analysis; format: ADME, organism-based; conditions: in vivo
[52] = Metabolic stability in mouse liver microsomes assessed as half life at 1 uM measured upto 120 mins by LC-MS/MS analysis; format: ADME, Microsome
[53] = Acute toxicity in Sprague-Dawley rat assessed as lethargy at 700 mg/kg, IG measured for 7 days; format: organism-based; conditions: in vivo, po, 168 h, time 7 day

Sequence of Muscarinic acetylcholine receptor M3 (P20309 whole entry): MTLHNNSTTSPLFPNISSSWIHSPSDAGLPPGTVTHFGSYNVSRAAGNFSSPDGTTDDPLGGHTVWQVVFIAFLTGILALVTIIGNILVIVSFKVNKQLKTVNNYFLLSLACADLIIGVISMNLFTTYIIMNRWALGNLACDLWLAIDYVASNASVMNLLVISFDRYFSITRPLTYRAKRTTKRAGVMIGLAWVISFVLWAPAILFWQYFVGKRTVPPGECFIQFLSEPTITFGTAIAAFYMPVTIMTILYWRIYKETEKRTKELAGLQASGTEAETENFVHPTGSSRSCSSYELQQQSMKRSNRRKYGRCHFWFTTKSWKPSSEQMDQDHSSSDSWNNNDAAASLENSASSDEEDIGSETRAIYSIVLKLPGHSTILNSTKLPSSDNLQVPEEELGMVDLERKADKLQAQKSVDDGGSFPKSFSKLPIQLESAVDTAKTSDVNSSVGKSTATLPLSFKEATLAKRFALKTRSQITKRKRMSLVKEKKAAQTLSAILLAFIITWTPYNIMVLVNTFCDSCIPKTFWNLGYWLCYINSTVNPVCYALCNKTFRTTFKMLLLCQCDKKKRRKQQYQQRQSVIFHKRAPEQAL
Sequence of Voltage-gated inwardly rectifying potassium channel KCNH2 (Q12809 whole entry): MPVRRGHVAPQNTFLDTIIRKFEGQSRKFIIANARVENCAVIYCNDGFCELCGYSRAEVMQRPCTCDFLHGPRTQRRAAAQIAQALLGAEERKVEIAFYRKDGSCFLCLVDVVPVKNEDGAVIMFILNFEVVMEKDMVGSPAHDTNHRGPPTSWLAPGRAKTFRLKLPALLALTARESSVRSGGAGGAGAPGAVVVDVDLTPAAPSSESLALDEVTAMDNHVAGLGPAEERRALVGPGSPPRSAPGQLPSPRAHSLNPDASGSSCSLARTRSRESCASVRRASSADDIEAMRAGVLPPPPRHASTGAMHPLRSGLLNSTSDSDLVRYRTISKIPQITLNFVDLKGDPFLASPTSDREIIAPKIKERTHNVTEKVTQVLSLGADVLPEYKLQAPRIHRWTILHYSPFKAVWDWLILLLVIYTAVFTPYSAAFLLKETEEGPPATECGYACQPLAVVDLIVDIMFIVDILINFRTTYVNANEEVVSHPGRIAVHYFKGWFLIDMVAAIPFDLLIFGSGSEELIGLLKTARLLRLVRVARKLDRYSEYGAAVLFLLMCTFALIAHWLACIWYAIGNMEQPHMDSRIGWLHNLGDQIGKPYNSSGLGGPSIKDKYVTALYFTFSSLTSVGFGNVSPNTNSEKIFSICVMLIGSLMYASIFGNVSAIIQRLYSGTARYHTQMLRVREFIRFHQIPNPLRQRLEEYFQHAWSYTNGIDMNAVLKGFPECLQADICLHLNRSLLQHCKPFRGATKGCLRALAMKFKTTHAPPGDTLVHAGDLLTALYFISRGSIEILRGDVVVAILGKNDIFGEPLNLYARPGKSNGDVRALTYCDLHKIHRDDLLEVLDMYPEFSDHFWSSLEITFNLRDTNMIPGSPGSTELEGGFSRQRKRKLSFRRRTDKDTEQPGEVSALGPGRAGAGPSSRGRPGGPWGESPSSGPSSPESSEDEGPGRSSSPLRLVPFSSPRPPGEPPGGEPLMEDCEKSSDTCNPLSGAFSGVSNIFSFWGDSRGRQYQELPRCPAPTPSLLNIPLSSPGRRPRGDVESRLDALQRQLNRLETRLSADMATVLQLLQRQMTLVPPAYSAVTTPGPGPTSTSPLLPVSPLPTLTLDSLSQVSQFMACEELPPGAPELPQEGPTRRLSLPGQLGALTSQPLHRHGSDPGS

In the case of CC(C)(C(=O)O)c1ccc(CCCN2CCC(=C3c4ccc(Cl)cc4CCc4cccnc43)CC2)cc1, the IC50 [1] is reported as > 30 µM and the IC50 [2] is reported as > 10 µM.
In the case of OC[C@H](O)CN1CCC(=C2c3ccc(Cl)cc3CCc3cccnc32)CC1, the IC50 [1] is reported as 2.64 µM and the IC50 [2] is reported as > 10 µM.
For O=C(O)c1ccc(CCCN2CCC(=C3c4ccc(Cl)cc4CCc4cccnc43)CC2)cc1, the IC50 [2] was > 10 µM.
For CC(C)(C(=O)O)c1cccc(CCCN2CCC(=C3c4ccc(Cl)cc4CCc4cccnc43)CC2)c1, the Kp [3] was 0.066, the Activity [4] was “Toxic” and the Activity [5] was “Non-Toxic”. The Activity [6] was “Toxic”, the Stability [7] was “Stable” and the Activity [8] was “Non-Toxic”. The Activity [9] was “Non-Toxic”, the MRT inf [10] was 0.7 h and the fraction unbound at 0.5 h, 1200 ng/ml [11] was 0.302. The Cmax [12] was 126 ng/g, the Activity [13] was “Toxic” and the Cmax [14] was 1720 ng/mL. For the same molecule, the Activity [15] was “Toxic”, the Activity [16] was “Non-Toxic” and the half-life [17] was 4.05 h. It also gave an IC50 [1] of 17.6 µM, a Papp B→A at 1 h, 5 µM [18] of 6.06 ×10⁻⁶ cm/s and a fraction unbound at 0.5 h, 500 ng/ml [19] of 0.34. The Cmax [20] was 1930 ng/g, the MRT inf [21] was 6.01 h and the Cmax [22] was 15.8 ng/g. For the same molecule, the fraction unbound at 0.5 h, 1000 ng/ml [23] was 0.327, the Kp [24] was 0.066 and the Papp A→B at 1 h, 5 µM [25] was 5.82 ×10⁻⁶ cm/s. For the same molecule, the clearance [26] was 37 mL/min/kg, the CL/F [27] was 59.4 mL/min/kg and the AUC(0-t) at 24 h [28] was 6250 ng·h/mL. For the same molecule, the AUC(0-t) at 24 h [29] was 1680 ng·h/mL, the fraction unbound at 0.5 h, 1200 ng/ml [30] was 0.284 and the bioavailability [31] was 59.5%. For the same molecule, the fraction unbound at 0.5 h, 250 ng/ml [32] was 0.347, the AUC(0-inf) [33] was 1820 ng·h/mL and the Activity [34] was “Toxic”. For the same molecule, the Activity [35] was “Toxic”, the fraction unbound at 0.5 h, 1000 ng/ml [36] was 0.321 and the MLD [37] was 350 mg/kg. For the same molecule, the Vd [38] was 21.26 L/kg, the Activity [39] was “Non-Toxic” and the fraction unbound at 0.5 h, 250 ng/ml [40] was 0.346. The Activity [41] was “Non-Toxic”, the fraction unbound at 0.5 h, 500 ng/ml [42] was 0.321 and the Activity [43] was “Non-Toxic”. The Tmax [44] was 0.38 h, the “inhibition (INH)” value [45] was “Not Active” and the IC50 [2] was > 10 µM. The Cmax [46] was 239 ng/g, the Stability [47] was “Stable” and the half-life [48] was 0.653 h. The AUC(0-inf) [49] was 7210 ng·h/mL, the Activity [50] was “Toxic” and the Vd [51] was 1.77 L/kg. For the same molecule, the half-life at 1 µM [52] was 1.44 h and the Activity [53] was “Toxic”.
